Results as given in patent US9060514B2, “Efficacy-enhancing agent composition for agricultural chemicals” (priority 2010, dated 2015).

Experiment: Flash point of solvents
Assay type: physicochemical
Settings: measured with Cleveland open cup tester or value from 15509 chemical products
Description: A flash point was a measured value (with a Cleveland open cup flashpoint tester or a value described in “15509 no Kagaku Seihin (15509 chemical products)” (2009, Jan., 27, Chemical Daily Co., Ltd.). Among solvents used in Comparative Examples, for those having a structure corresponding to the formula (C1), meanings of items in the formula (C1) were shown for convenience.

| Structure (SMILES) | Flash point |
| --- | --- |
| OCCO [Ethylene glycol] | 120 °C |
| C[S+](C)[O-] [Dimethylsulfoxide] | 95 °C |
| CCCCOCCOCCOCCCC [Diethyleneglycol dibutyl ether] | 122 °C |
| CCCCOCCOCCO [n-Butyl carbitol] | 120 °C |
| COCCOCCO [Methyl carbitol] | 105 °C |
| OCCOCCO [Diethylene glycol] | 138 °C |

Now from value to compound:

| Flash point | Structure (SMILES) |
| --- | --- |
| 102 °C | CCOCCOCCO [Ethyl carbitol] |
| 39 °C | COCCO [Methyl cellosolve] |
| 99 °C | CC(O)CO (stereo not drawn) [Propylene glycol] |
| 78 °C | CCCCC(CC)CO (stereo not drawn) [2-ethyl-l-hexanol] |
| 12 °C | CC(C)O [Isopropanol] |
| 56 °C | COCCOCCOC [Diethylene glycol dimethyl ether] |
| 28 °C | CC(C)CO [Isobutanol] |
| 151 °C | CCCCC(CC)COCCOCCO (stereo not drawn) [Diethylene glycol mono2-ethylhexyl ether] |
| 32 °C | COCC(C)O (stereo not drawn) [Propylene glycol monomethyl ether] |
